Test results reported in patent EP1010435A1, “NANOCAPSULE PREPARATIONS FOR TREATING INTRAARTICULAR DISEASES” (Maruho K.K., priority 1997, dated 1999).

System: rabbit models in which adjuvant arthritis was induced with ovalbumin (FCA)
Assay: Rabbit adjuvant arthritis model, intra-articular administration simultaneously with boosting
Assay type: in vivo, rabbits
Method: Produced were rabbit models in which adjuvant arthritis was induced with ovalbumin (FCA) according to the method of E.R.Pettipher et al. (Br.J.Exp.Path., 69, 113-122, (1988)). Three weeks after sensitization, the models were boosted again with ovalbumin at knees. Simultaneously with boosting, the sample of the present invention was administered in articular cavities.
An aqueous solution of betamethasone sodium phosphate so prepared that the amount of the medicament (BSP) was the same, 3mg, and physiological saline alone were administered in articular cavities as a control and as a blank test, respectively, simultaneously with boosting.
The outside diameter of the knees of rabbits were measured with a caliper 1 day, 3 days, 7 days, 14 days, 21 days, 28 days, 35 days and 42 days after administration. Skin temperature at the knees was measured with a contact-type surface thermometer.
The outside diameter of the knees and temperature measured with time are shown as values obtained by subtracting reference values from the measured values. The reference values are those before the boosting at the knees.
Further, blood was collected from rabbits 2 weeks, 4 weeks and 6 weeks after boosting, and the production of antibodies for ovalbumin was mesured by the ELISA method (according to the same reference by E.R.Pettipher). In addition, 6 weeks after boosting, the knee joints of rabbits are opened, and the inside of the articular cavities and surrounding tissue were morphologically observed.

C[C@H]1C[C@H]2[C@@H]3CCC4=CC(=O)C=C[C@]4(C)[C@@]3(F)[C@@H](O)C[C@]2(C)[C@@]1(O)C(=O)COP(=O)(O)O [betamethasone sodium phosphate]
temperature of knees (surface skin temperature, increase) (1 to 42 days after administration, 3 mg BSP intra-articular): fever due to inflammation was suppressed | swell of knees (outside diameter, increase over value before boosting), later course (after day 1 up to 5 weeks and later, 3 mg BSP intra-articular): almost the same swell as in the case of physiological saline | swell of knees (outside diameter, increase over value before boosting) (one day after intra-articular administration, 3 mg BSP): suppressed
